Test results taken from patent publication US10426815B2, “Prevention and treatment of itch with an MRGPR antagonist” (THE GENERAL HOSPITAL CORPORATION, priority 2015, dated 2019).
Entries after “also recorded” stand apart in the source; their conditions may differ.

Key:
[1] = target: T1, MrgB2 (mouse MrgprB2) (Mus musculus, UniProt Q3KNA1); assay: Calcium imaging of cells transfected with the GPCR (Table 1); format: cell-based; conditions: for inhibition of SP-induced activation of mouse MrgprB2: FIG. 11: SP 50 μM, NK1 antagonists 50 μM
T1 construct: expressed in transfected cells; host or cells: HeLa cells, pcDNA3.1(-)
T1 sequence (Q3KNA1 1-338): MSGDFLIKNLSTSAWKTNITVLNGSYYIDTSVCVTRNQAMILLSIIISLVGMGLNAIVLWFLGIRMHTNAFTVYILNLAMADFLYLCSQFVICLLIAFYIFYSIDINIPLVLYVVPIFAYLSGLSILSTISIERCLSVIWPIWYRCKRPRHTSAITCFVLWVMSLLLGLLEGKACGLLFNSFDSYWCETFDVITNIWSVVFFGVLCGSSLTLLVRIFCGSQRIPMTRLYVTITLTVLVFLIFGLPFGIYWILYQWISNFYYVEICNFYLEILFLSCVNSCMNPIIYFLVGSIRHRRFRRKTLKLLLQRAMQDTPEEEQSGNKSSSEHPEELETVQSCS
Protocol: (§1) human MRGPRX2 was isolated by PCR from human genomic DNA using the forward and reverse primers, […] (SEQ. ID. NO: 3) and […] (SEQ. ID. NO: 4), and cloned into pcDNA3.1(−). The mouse MrgprA1 cDNA expression clone was purchased from ORIGENE Technologies. The mouse MrgprB2 coding sequences were PCR-amplified from mouse genomic DNA using the primer pair, […] (SEQ. ID. NO: 5) and […] (SEQ. ID. NO: 6), and cloned into pcDNA3.1 (−).
(§2) 10 μg of expression vector (human MRGPRX2, mouse MrgprA1 or NK1) and 10 μl of LIPOFECTAMINE 2000 transfection reagent were diluted into 0.5 ml of DMEM and separately left at room temperature (RT) for 5 min. They were then mixed and incubated at RT for 20 minutes prior to being added to HeLa cells. HeLa cells were grown to confluence, trypsinized and 1×10^6 cells were pelleted in a 15 ml tube by centrifugation at 1000 rpm for 5 minutes. The DMEM-LIPOFECTAMINE 2000-DNA mixture (1 ml) was then added to the cell pellet, suspended and incubated at RT for 5 minutes. 2 ml of complete DMEM with 10% FBS without antibiotics were added to the tube, mixed by inverting the tube, plated into a 96-well glass bottom plate at 50,000 cells/well, and placed in a 37° C. CO2 incubator for 3 hours. HeLa cells transfected with salmon sperm DNA were plated as a control. The medium was changed after 3 hours and left in the incubator. 24 hours after transfection, the medium in the wells was removed and 100 μl of complete DMEM containing 2 μM of FURA-2 were added to each well and left at room temperature in the dark for 1 hr.
(§3) Calcium imaging was performed immediately after loading cells with Fura-2, using a ZEISS Axiovert 200M microscope platform equipped with a flipping filter wheel for ratiometric imaging. Axiovision software, version 4.6 was used for calcium image analysis of the cells excited at 340 nm and 380 nm. Agonists were added at 15 seconds after the start of the excitation procedure. Antagonists were added five minutes before imaging with the agonists. Images were taken every 5 seconds, including at zero time, during a 90 second period or longer if required. The software later analyzed all images taken during each excitation period. Ratiometric changes were measured in 10-20 cells in each individual experiment. An average of the fluorescence of the cells in each image was calculated and plotted against time in seconds.

[2] = target: T2, MrgX2 (human MRGPRX2) (Homo sapiens, UniProt Q96LB1); assay: as above; format: cell-based; conditions: for inhibition of SP-induced activation of human MRGPRX2: FIG. 6a: SP 500 nM, inhibitors 1 μM, FK888 10 μM
T2 construct: expressed in transfected cells; host or cells: HeLa cells, pcDNA3.1(-)
T2 sequence (Q96LB1 1-330): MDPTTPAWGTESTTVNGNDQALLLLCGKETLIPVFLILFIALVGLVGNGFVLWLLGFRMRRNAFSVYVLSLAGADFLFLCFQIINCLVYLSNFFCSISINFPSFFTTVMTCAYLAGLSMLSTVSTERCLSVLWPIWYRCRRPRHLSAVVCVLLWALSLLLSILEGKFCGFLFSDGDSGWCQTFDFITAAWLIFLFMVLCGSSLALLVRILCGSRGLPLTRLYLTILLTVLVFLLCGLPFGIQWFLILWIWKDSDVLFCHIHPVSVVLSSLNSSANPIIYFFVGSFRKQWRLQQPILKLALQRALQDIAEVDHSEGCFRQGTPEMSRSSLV
Protocol: as §1
as §2, with “hr. Following loading with FURA-2, the medium was removed, washed with PBS and replaced with 90 μl of HEPES-buffered saline (20 mM HEPES, 115 mM NaCl, 5.4 mM KCl, 2 mM CaCl2, 0.8 mM MgCl2, 13.8 mM glucose, pH 7.4).” for “hr.”
as §3
Each of the concentration dependent readings was performed in triplicate. Maximum intensities at each of the dilutions were calculated and plotted against concentration using GraphPad Prism software. Error bars represent SEM.

Molecule | inhibition of SP-induced activation of mouse MrgprB2 [1] | inhibition of SP-induced activation of human MRGPRX2 [2] | activation of mouse MrgprB2 by the substance (in words) [1] | further results
C[C@@H](O[C@H]1OCCN(Cc2n[nH]c(=O)[nH]2)[C@H]1c1ccc(F)cc1)c1cc(C(F)(F)F)cc(C(F)(F)F)c1 [aprepitant] | antagonized; also recorded: antagonists | did not impact | – | –
SLIGRL: tethered hexapeptide ligand of mouse PAR2 (SEQ ID NO: 7) | – | – | activates | activation of human MRGPRX2 by the substance (in words) ([2]; NPFF 50 μM, capsaicin 3 μM, SP at nanomolar concentrations): activates
Boc-Gln-D-Trp(Formyl)-Phe benzyl ester trifluoroacetate [QWF] | inhibits; also recorded: antagonized; also recorded: antagonist | excellent inhibitor; also recorded: potent antagonist; also recorded: inhibits | – | inhibition of mMrgprB2 activation by compound 48/80 [1]: inhibits; inhibition of mouse MrgprB2 activation by atracurium and ciprofloxacin ([1]; FIG. 8a): antagonized; also recorded: inhibits; inhibition of mMrgprB2 activation by SLIGRL ([1]; SLIGRL 10 μM, QWF 10 μM (FIG. 12)): inhibits; inhibition of hMRGPRX2 activation by compound 48/80 [2]: inhibits; inhibition of human MRGPRX2 activation by atracurium and ciprofloxacin ([2]; FIG. 8a): antagonized; also recorded: inhibits
FC(F)(F)c1cc(CO[C@H]2CCCN[C@H]2c2ccccc2)cc(C(F)(F)F)c1 [L-733060] | antagonized; also recorded: antagonists | did not impact | – | –
SP: inflammatory undecapeptide neuropeptide of the tachykinin family, synthesized by GenScript | – | – | activates | –
